Assay results: patent US12577245B2, “Sulfonyl benzamide derivatives as Bcl-2 inhibitors” (ASCENTAGE PHARMA (SUZHOU) CO., LTD., priority 2021, dated 2026)
Like-named read-outs stand apart in the source and are kept apart here.

What was measured:
[1] = target: Bcl-2 WT (Homo sapiens, UniProt P10415); test: Bcl-2 WT inhibition, fluorescence polarization (Flu-BIM tracer) binding assay
[2] = test system: RS4; 11Bcl-2-G101V cells; test: CellTiter-Glo (CTG) cell viability assay in RS4;11-Bcl-2-G101V cells; format: cell-based; conditions: 72 h, 10% FBS, 3 days
How it was run: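 Luminescent ATP read-out (CellTiter-Glo) after 3-day compound treatment at 37 °C gave viability relative to vehicle, from which IC50 was fitted. Mutant Bcl-2 RS4;11 cells were seeded at 10000 per well and rested 4 h before dosing.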

[3] = test system: MV-4-11 cells; test: CCK-8 cell viability assay in MV-4-11 cells; format: cell-based; conditions: Homo sapiens, MV4-11, 72 h, 10% FBS, 3 days
How it was run: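 IC50 values come from vehicle-normalized CCK-8 absorbance at 450 nm, read 1–4 h after reagent addition. Before that, MV-4-11 cells seeded at 20000 per well were cultured 3 days at 37 °C with a compound dilution series.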

[4] = FP, 20 nM Bcl2, 5 nM Flu-BIM, 1 h incubation, read-out: Bcl-2 w.t. (FP)

Bcl-2 WT, sequence (P10415 whole entry): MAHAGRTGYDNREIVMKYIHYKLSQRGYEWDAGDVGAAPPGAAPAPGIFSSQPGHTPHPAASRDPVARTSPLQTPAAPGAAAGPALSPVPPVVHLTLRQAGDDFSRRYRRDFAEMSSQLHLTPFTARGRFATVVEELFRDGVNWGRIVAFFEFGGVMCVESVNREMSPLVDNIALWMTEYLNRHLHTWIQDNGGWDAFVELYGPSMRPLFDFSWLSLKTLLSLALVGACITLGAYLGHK

CC1(C)CCC(CN2CCN(c3ccc(C(=O)NS(=O)(=O)c4ccc(NC[C@H]5COCCO5)c([N+](=O)[O-])c4)c(Oc4cnc5[nH]ccc5c4)c3)CC2)=C(c2cc(C(=O)Nc3ccccc3)cs2)C1 [Example 17, (S)-5-(2-((4-(4-(((4-(((1,4-dioxan-2-yl)methyl)amino)-3-nitrophenyl)sulfonyl)carbamoyl)-3-((1H-pyrrolo[2,3-b]pyridin-5-yl)oxy)phenyl)piperazin-1-yl)methyl)-5,5-dimethylcyclohex-1-en-1-yl)-N-phenylthiophene-3-carboxamide]
IC50 [1]: 30.9 nM
IC50 [2]: 4250 nM
IC50 [3]: 262 nM

CC1(C)CCC(CN2CCN(c3ccc(C(=O)NS(=O)(=O)c4ccc(NCC5CCOCC5)c([N+](=O)[O-])c4)c(Oc4cnc5[nH]ccc5c4)c3)CC2)=C(c2csc(CN3CCOCC3)c2)C1 [Example 21, 2-((1H-pyrrolo[2,3-b]pyridin-5-yl)oxy)-4-(4-((4,4-dimethyl-2-(5-(morpholinomethyl)thiophen-3-yl)cyclohex-1-en-1-yl)methyl)piperazin-1-yl)-N-((3-nitro-4-(((tetrahydro-2H-pyran-4-yl)methyl)amino)phenyl)sulfonyl)benzamide]
IC50 [1, 4]: 27.1 nM
IC50 [2]: 3790 nM
IC50 [3]: 323 nM

CC1(C)CCC(CN2CCN(c3ccc(C(=O)NS(=O)(=O)c4ccc(NC[C@H]5CC[C@](C)(O)CC5)c([N+](=O)[O-])c4)c(Oc4cnc5[nH]ccc5c4)c3)CC2)=C(c2cc(-c3c(F)cc(C(C)(C)CO)cc3F)cs2)C1 [Example 74, 2-((1H-pyrrolo[2,3-b]pyridin-5-yl)oxy)-4-(4-((2-(4-(2,6-difluoro-4-(1-hydroxy-2-methylpropan-2-yl)phenyl)thiophen-2-yl)-4,4-dimethylcyclohex-1-en-1-yl)methyl)piperazin-1-yl)-N-((4-((((1r,4r)-4-hydroxy-4-methylcyclohexyl)methyl)amino)-3-nitrophenyl)sulfonyl)benzamide]
IC50 [1, 4]: 38.5 nM
IC50 [2]: 230 nM
IC50 [3]: 52 nM

CC1(C)CCC(CN2CCN(c3ccc(C(=O)NS(=O)(=O)c4ccc(NC[C@H]5COCCO5)c([N+](=O)[O-])c4)c(Oc4cnc5[nH]ccc5c4)c3)CC2)=C(c2cc(CN3CCN(C4COC4)CC3)cs2)C1 [Example 31, (S)—N-((4-(((1,4-dioxan-2-yl)methyl)amino)-3-nitrophenyl)sulfonyl)-2-((1H-pyrrolo[2,3-b]pyridin-5-yl)oxy)-4-(4-((4,4-dimethyl-2-(4-((4-(oxetan-3-yl)piperazin-1-yl)methyl)thiophen-2-yl)cyclohex-1-en-1-yl)methyl)piperazin-1-yl)benzamide]
IC50 [1, 4]: 26 nM
IC50 [2]: 880 nM
IC50 [3]: 147 nM

CC1(C)CCC(CN2CCN(c3ccc(C(=O)NS(=O)(=O)c4ccc(NCC5CCOCC5)c([N+](=O)[O-])c4)c(Oc4cnc5[nH]ccc5c4)c3)CC2)=C(c2ccc(CN3CCOCC3)s2)C1 [Example 26, 2-((1H-pyrrolo[2,3-b]pyridin-5-yl)oxy)-4-(4-((4,4-dimethyl-2-(5-(morpholinomethyl)thiophen-2-yl)cyclohex-1-en-1-yl)methyl)piperazin-1-yl)-N-((3-nitro-4-(((tetrahydro-2H-pyran-4-yl)methyl)amino)phenyl)sulfonyl)benzamide]
IC50 [1, 4]: 26.4 nM
IC50 [2]: 2590 nM
IC50 [3]: 246 nM

CC1(C)CCC(CN2CCN(c3ccc(C(=O)NS(=O)(=O)c4ccc(NC[C@H]5CC[C@](C)(O)CC5)c([N+](=O)[O-])c4)c(Oc4cnc5[nH]ccc5c4)c3)CC2)=C(c2cc(-c3cc(F)c(F)c(F)c3)cs2)C1 [Example 45, 2-((1H-pyrrolo[2,3-b]pyridin-5-yl)oxy)-4-(4-((4,4-dimethyl-2-(4-(3,4,5-trifluorophenyl)thiophen-2-yl)cyclohex-1-en-1-yl)methyl)piperazin-1-yl)-N-((4-((((1r,4r)-4-hydroxy-4-methylcyclohexyl)methyl)amino)-3-nitrophenyl)sulfonyl)benzamide]
IC50 [1, 4]: 33.8 nM
IC50 [2]: 1680 nM
IC50 [3]: 57 nM

CC1(C)CCC(CN2CCN(c3ccc(C(=O)NS(=O)(=O)c4ccc(NC[C@H]5COCCO5)c([N+](=O)[O-])c4)c(Oc4cnc5[nH]ccc5c4)c3)CC2)=C(c2cc3c(s2)CCN(c2ccc(F)cc2)C3)C1 [Example 15, (S)—N-((4-(((1,4-dioxan-2-yl)methyl)amino)-3-nitrophenyl)sulfonyl)-2-((1H-pyrrolo[2,3-b]pyridin-5-yl)oxy)-4-(4-((2-(5-(4-fluorophenyl)-4,5,6,7-tetrahydrothieno[3,2-c]pyridin-2-yl)-4,4-dimethylcyclohex-1-en-1-yl)methyl)piperazin-1-yl)benzamide]
IC50 [1, 4]: 27.6 nM
IC50 [2]: 8810 nM
IC50 [3]: 466 nM

CC1(C)CCC(CN2CCN(c3ccc(C(=O)NS(=O)(=O)c4ccc(NC[C@H]5COCCO5)c([N+](=O)[O-])c4)c(Oc4cnc5[nH]ccc5c4)c3)CC2)=C(c2cc(-c3ccc(F)cc3F)cs2)C1 [Example 42, (S)—N-((4-(((1,4-dioxan-2-yl)methyl)amino)-3-nitrophenyl)sulfonyl)-2-((1H-pyrrolo[2,3-b]pyridin-5-yl)oxy)-4-(4-((2-(4-(2,4-difluorophenyl)thiophen-2-yl)-4,4-dimethylcyclohex-1-en-1-yl)methyl)piperazin-1-yl)benzamide]
IC50 [1, 4]: 38.7 nM
IC50 [2]: 480 nM
IC50 [3]: 26 nM

[2H]C([2H])([2H])C(O)(c1cc(F)c(-c2csc(C3=C(CN4CCN(c5ccc(C(=O)NS(=O)(=O)c6ccc(NC[C@H]7CC[C@](C)(O)CC7)c([N+](=O)[O-])c6)c(Oc6cnc7[nH]ccc7c6)c5)CC4)CCC(C)(C)C3)c2)c(F)c1)C([2H])([2H])[2H] [Example 68, 2-((1H-pyrrolo[2,3-b]pyridin-5-yl)oxy)-4-(4-((2-(4-(2,6-difluoro-4-(2-hydroxypropan-2-yl-1,1,1,3,3,3-d6)phenyl)thiophen-2-yl)-4,4-dimethylcyclohex-1-en-1-yl)methyl)piperazin-1-yl)-N-((4-((((1r,4r)-4-hydroxy-4-methylcyclohexyl)methyl)amino)-3-nitrophenyl)sulfonyl)benzamide]
IC50 [1, 4]: 23.2 nM
IC50 [2]: 21 nM
IC50 [3]: 9 nM

CC1(C)CCC(CN2CCN(c3ccc(C(=O)NS(=O)(=O)c4ccc(NC[C@H]5CC[C@](C)(O)CC5)c([N+](=O)[O-])c4)c(Oc4cnc5[nH]ccc5c4)c3)CC2)=C(c2cc(-c3cc(F)cc(C#N)c3)cs2)C1 [Example 55, 2-((1H-pyrrolo[2,3-b]pyridin-5-yl)oxy)-4-(4-((2-(4-(3-cyano-5-fluorophenyl)thiophen-2-yl)-4,4-dimethylcyclohex-1-en-1-yl)methyl)piperazin-1-yl)-N-((4-((((1r,4r)-4-hydroxy-4-methylcyclohexyl)methyl)amino)-3-nitrophenyl)sulfonyl)benzamide]
IC50 [1, 4]: 31.2 nM
IC50 [2]: 1140 nM
IC50 [3]: 72 nM

CC1(C)CCC(CN2CCN(c3ccc(C(=O)NS(=O)(=O)c4ccc(NC[C@H]5COCCO5)c([N+](=O)[O-])c4)c(Oc4cnc5[nH]ccc5c4)c3)CC2)=C(c2cc(-c3ccc(F)cc3)cs2)C1 [Example 33, (S)—N-((4-(((1,4-dioxan-2-yl)methyl)amino)-3-nitrophenyl)sulfonyl)-2-((1H-pyrrolo[2,3-b]pyridin-5-yl)oxy)-4-(4-((2-(4-(4-fluorophenyl)thiophen-2-yl)-4,4-dimethylcyclohex-1-en-1-yl)methyl)piperazin-1-yl)benzamide]
IC50 [1, 4]: 23.9 nM
IC50 [2]: 630 nM
IC50 [3]: 6 nM

CC1(C)CCC(CN2CCN(c3ccc(C(=O)NS(=O)(=O)c4ccc(NC[C@H]5CC[C@](C)(O)CC5)c([N+](=O)[O-])c4)c(Oc4cnc5[nH]ccc5c4)c3)CC2)=C(c2cc(-c3ccc(C(C)(C)O)cc3F)cs2)C1 [Example 62, 2-((1H-pyrrolo[2,3-b]pyridin-5-yl)oxy)-4-(4-((2-(4-(2-fluoro-4-(2-hydroxypropan-2-yl)phenyl)thiophen-2-yl)-4,4-dimethylcyclohex-1-en-1-yl)methyl)piperazin-1-yl)-N-((4-((((1r,4r)-4-hydroxy-4-methylcyclohexyl)methyl)amino)-3-nitrophenyl)sulfonyl)benzamide]
IC50 [1, 4]: 15.7 nM
IC50 [2]: 140 nM
IC50 [3]: 4 nM

CC1(C)CCC(CN2CCN(c3ccc(C(=O)NS(=O)(=O)c4ccc(NC[C@H]5CC[C@](C)(O)CC5)c([N+](=O)[O-])c4)c(Oc4cnc5[nH]ccc5c4)c3)CC2)=C(c2cc(-c3c(F)cc(C(C)(O)C4CC4)cc3F)cs2)C1 (stereo partly drawn) [Example 69, 2-((1H-pyrrolo[2,3-b]pyridin-5-yl)oxy)-4-(4-((2-(4-(4-(1-cyclopropyl-1-hydroxyethyl)-2,6-difluorophenyl)thiophen-2-yl)-4,4-dimethylcyclohex-1-en-1-yl)methyl)piperazin-1-yl)-N-((4-((((1r,4r)-4-hydroxy-4-methylcyclohexyl)methyl)amino)-3-nitrophenyl)sulfonyl)benzamide]
IC50 [1, 4]: 24.8 nM
IC50 [2]: 300 nM
IC50 [3]: 473 nM

CC1(C)CCC(CN2CCN(c3ccc(C(=O)NS(=O)(=O)c4ccc(NC[C@H]5CC[C@](C)(O)CC5)c([N+](=O)[O-])c4)c(Oc4cnc5[nH]ccc5c4)c3)CC2)=C(c2cc(-c3ccc(F)cc3)cs2)C1 [Example 37, 2-((1H-pyrrolo[2,3-b]pyridin-5-yl)oxy)-4-(4-((2-(4-(4-fluorophenyl)thiophen-2-yl)-4,4-dimethylcyclohex-1-en-1-yl)methyl)piperazin-1-yl)-N-((4-((((1r,4r)-4-hydroxy-4-methylcyclohexyl)methyl)amino)-3-nitrophenyl)sulfonyl)benzamide]
IC50 [1, 4]: 20.5 nM
IC50 [2]: 290 nM
IC50 [3]: 11 nM
